In patent US20210238197A1, “NOVEL OXOQUINOLIZINE COMPOUNDS FOR THE TREATMENT AND PROPHYLAXIS OF BACTERIAL INFECTION” (Hoffmann-La Roche Inc., priority 2018, published 2021):
Converted amounts (≈) assume the structure as drawn. Where two headings read alike, the source gives them in different places.

Key:
[1] = system: multiple species and strains; assay: microbe, parasite or virus in culture; set-up: MIC S9 / MIC S7 / MIC S11 / MIC S8 / MIC S10: unit not given beside the values
Method in brief: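 Broth microdilution per CLSI M07-A10 in CAMHB, CAMHB+3% lysed horse blood or HTM. Inoculum was set to OD600 ~0.1, then diluted 1:280 (Gram-positive) or 1:400 (Gram-negative), and plates were incubated 18-24 h at 35±2° C in ambient air. MIC (μg/mL) is the lowest concentration giving no visible growth.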

HepG2 cells = assay: Cytotoxicity assay (HepG2, CellTiter-Blue); format: cell-based
Method in brief: (§1)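 HepG2 cells exposed to compounds for 3 days. Viability read on day 3 by CellTiter-Blue fluorescence after 3 h at 37° C. CC50 obtained from a four-parameter logistic fit.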

A. baumannii (ATCC17978) = assay: 50% growth inhibitory concentration (IC50) determination assay, A. baumannii; format: cell-based; details: Iso-Sensitest broth, growth by OD 600 nm over 16 h, <0.098 = detection limit
Method in brief: (§2)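 Compounds two-fold diluted from 50 to 0.097 μM (final) in Iso-Sensitest broth, inoculum ~5×10^5 CFU/mL. Incubation at 35±2 °C with OD600 read every 20 min over 16 h to track growth.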

S. aureus (ATCC29213) = assay: 50% growth inhibitory concentration (IC50) determination assay, S. aureus; format: cell-based; details: Iso-Sensitest broth, growth by OD 600 nm over 16 h, <0.098 = detection limit
Method in brief: as §2

[2] = system: K. pneumoniae (ATCC10031); assay: 50% growth inhibitory concentration (IC50) determination assay, K. pneumoniae; format: cell-based; details: Iso-Sensitest broth, growth by OD 600 nm over 16 h, <0.098 = detection limit
Method in brief: as §2

[3] = Cytotoxicity assay (HepG2, CellTiter-Blue); format: cell-based; details: human; HepG2 cells, 3 days treatment; >100 = detection limit
Method in brief: as §1

[4] = Single dose PK study (SDPK) in female CD-1 mouse; format: in vivo; details: IV bolus, 1.0 mg/kg solution; for clearance: plasma, read-out: CL total
Description: The single dose PK in female CD-1 mouse was performed to assess compound's pharmacokinetic properties. One group of animals were dosed via bolus intravenous (IV) of the respective compound. Blood samples (approximately 30 μL) were collected via saphenous vein at 5 mins, 15 min, 30 min, 1 hr, 2 hr, 4 hr and 7 hr. For last time point (24 hr), samples were collected via cardiac puncture while the mouse was under anesthesia. Blood samples were placed into tubes containing EDTA-K2 anticoagulant (2 μL of 0.5M per tube) and centrifuged at 3000 rpm for 10 minutes at 4° C. within half an hour to separate plasma from the samples. Following centrifugation, plasma samples were stored in polypropylene tubes, quick frozen over dry ice and kept at −70±10° C. until LC/MS/MS analysis. The pharmacokinetic parameters were calculated using non-compartmental module of WinNonlin® Professional 6.4.

[5] = Lyophilisation solubility assay (LYSA); format: physicochemical; details: aqueous buffer, thermodynamic from solid; 0.05 M phosphate buffer, pH 6.5; <1.0 = detection limit
Description: The solubility of compounds of present invention was assessed by LYSA assay. Samples were prepared in duplicate from 10 mM DMSO stock solutions (20 μL) diluted in 30 μL pure DMSO. After evaporation of DMSO with a centrifugal vacuum evaporator, the residue was dissolved in 0.05 M phosphate buffer (150 μL, pH 6.5), which was stirred for one hour and shook for two hours. After one night, the solution was filtered using a microtiter filter plate. Then the filtrate and its 1/10 dilution were analyzed by HPLC-UV. In addition a four-point calibration curve was prepared from the 10 mM stock solutions and used for the solubility determination of the compounds.

[6] = Acinetobacter baumannii, ATCC19606, read-out: MIC S1, A. baumannii ATCC 19606
[7] = Acinetobacter baumannii, ATCC51432, read-out: MIC S2, A. baumannii ATCC 51432
[8] = Acinetobacter baumannii, ATCCBAA747, read-out: MIC S3, A. baumannii ATCC BAA-747
[9] = Escherichia coli, ATCC25922, read-out: MIC S11, E. coli ATCC 25922
[10] = Escherichia coli, ATCCBAA2340, read-out: MIC S10, E. coli ATCC BAA-2340
[11] = Klebsiella pneumoniae, ATCC10031, read-out: MIC S4, K. pneumoniae ATCC 10031
[12] = Klebsiella pneumoniae, ATCC700603, read-out: MIC S5, K. pneumoniae ATCC 700603
[13] = Klebsiella pneumoniae, ATCCBAA2146, read-out: MIC S6, K. pneumoniae ATCC BAA-2146
[14] = Pseudomonas aeruginosa, ATCC27853, read-out: MIC S7, P. aeruginosa ATCC 27853
[15] = Pseudomonas aeruginosa, ATCCBAA2113, read-out: MIC S8, P. aeruginosa ATCC BAA-2113
[16] = Acinetobacter baumannii, ATCC17978
[17] = Staphylococcus aureus, ATCC29213
[18] = Klebsiella pneumoniae, ATCC10031

Molecule: 7-(5-cyano-4-(cis-(4R)-4 (dimethylamino)-3,3a,4,5,6,6a-hexahydro-1H-cyclopenta[c]pyrrol-2-yl)-6-fluoro-8-(methylamino)-9H-pyrido[2,3-b]indol-3-yl)-4-oxo-4H-quinolizine-3-carboxylic acid [Example 1.12]
- MIC S9 [1]: 0.541
- MIC S1 ([1]; A. baumannii ATCC 19606): 1.082
- MIC S2 ([1]; A. baumannii ATCC 51432): 0.541
- MIC S3 ([1]; A. baumannii ATCC BAA-747): 0.541
- MIC S11 ([1]; E. coli ATCC 25922): 0.203
- MIC S10 ([1]; E. coli ATCC BAA-2340): 0.541
- MIC S4 ([1]; K. pneumoniae ATCC 10031): 0.068
- MIC S5 ([1]; K. pneumoniae ATCC 700603): 2.168
- MIC S6 ([1]; K. pneumoniae ATCC BAA-2146): 4.335
- MIC S7 ([1]; P. aeruginosa ATCC 27853): 1.082
- MIC S8 ([1]; P. aeruginosa ATCC BAA-2113): 2.168
- CC50 (HepG2 cells): > 100000 nM
- IC50 (A. baumannii (ATCC17978)): < 98 nM
- IC50 (S. aureus (ATCC29213)): < 98 nM
- IC50 [2]: < 98 nM

Molecule: CNc1cc(F)c(F)c2c1[nH]c1ncc(-c3ccc4ccc(C(=O)O)c(=O)n4c3)c(N3CCC4CN(C)C[C@@H]43)c12 (stereo in doubt) [Example 1.03, 7-[5,6-difluoro-4-(cis-5-methyl-2,3,3a,4,6,6a-hexahydropyrrolo[2,3-c]pyrrol-1-yl)-8-(methylamino)-9H-pyrido[2,3-b]indol-3-yl]-4-oxo-quinolizine-3-carboxylic acid]
- MIC [1, 6]: 0.26 µg/mL (≈ 0.477 µM)
- MIC [1, 7]: 0.26 µg/mL (≈ 0.477 µM)
- MIC [1, 8]: 0.13 µg/mL (≈ 0.239 µM)
- MIC S9 ([1]; E. coli ATCC 35218): 0.510
- MIC [1, 9]: 0.193 µg/mL (≈ 0.354 µM)
- MIC [1, 10]: 2.06 µg/mL (≈ 3.78 µM)
- MIC [1, 11]: 0.03 µg/mL (≈ 0.0551 µM)
- MIC [1, 12]: 4.12 µg/mL (≈ 7.57 µM)
- MIC [1, 13]: 2.06 µg/mL (≈ 3.78 µM)
- MIC [1, 14]: 1.03 µg/mL (≈ 1.89 µM)
- MIC [1, 15]: 2.06 µg/mL (≈ 3.78 µM)
- CC50 at 3 days [3]: 21900 nM
- AUC total [4]: 374.7 ng·h/mL
- clearance [4]: 39.1 mL/min/kg
- IC50 (A. baumannii (ATCC17978); [16]): < 98 nM
- IC50 (S. aureus (ATCC29213); [17]): < 98 nM
- IC50 [2, 18]: < 98 nM
- solubility thermodynamic [5]: 134 µg/mL (≈ 246 µM)

Molecule: CNc1cc(F)c(F)c2c1[nH]c1ncc(-c3ccc4ccc(C(=O)O)c(=O)n4c3)c(N3CC[C@H]4CN(C)C[C@H]43)c12 [Example 1.04, 7-[4-[(3aS,6aS)-5-methyl-2,3,3a,4,6,6a-hexahydropyrrolo[2,3-c]pyrrol-1-yl]-5,6-difluoro-8-(methylamino)-9H-pyrido[2,3-b]indol-3-yl]-4-oxo-quinolizine-3-carboxylic acid]
- MIC [1, 6]: 0.128 µg/mL (≈ 0.235 µM)
- MIC [1, 7]: 0.128 µg/mL (≈ 0.235 µM)
- MIC [1, 8]: 0.128 µg/mL (≈ 0.235 µM)
- MIC S9 ([1]; E. coli ATCC 35218): 0.128
- MIC [1, 9]: 0.048 µg/mL (≈ 0.0881 µM)
- MIC [1, 10]: 0.258 µg/mL (≈ 0.474 µM)
- MIC [1, 11]: 0.032 µg/mL (≈ 0.0588 µM)
- MIC [1, 12]: 1.03 µg/mL (≈ 1.89 µM)
- MIC [1, 13]: 1.03 µg/mL (≈ 1.89 µM)
- MIC [1, 14]: 0.514 µg/mL (≈ 0.944 µM)
- MIC [1, 15]: 2.06 µg/mL (≈ 3.78 µM)
- CC50 at 3 days [3]: 15000 nM
- AUC total [4]: 256 ng·h/mL
- clearance [4]: 64.1 mL/min/kg
- IC50 (A. baumannii (ATCC17978); [16]): < 98 nM
- IC50 (S. aureus (ATCC29213); [17]): < 98 nM
- IC50 [2, 18]: < 98 nM
- solubility thermodynamic [5]: 460 µg/mL (≈ 845 µM)

Molecule: CNc1cc(F)c(C#N)c2c1[nH]c1ncc(-c3ccc4ccc(C(=O)O)c(=O)n4c3)c(N3CC[C@H]4CN(C)C[C@H]43)c12 [Example 1.14, 7-[4-[(3aS,6aS)-5-methyl-2,3,3a,4,6,6a-hexahydropyrrolo[2,3-c]pyrrol-1-yl]-5-cyano-6-fluoro-8-(methylamino)-9H-pyrido[2,3-b]indol-3-yl]-4-oxo-quinolizine-3-carboxylic acid]
- MIC [1, 6]: 0.108 µg/mL (≈ 0.196 µM)
- MIC [1, 7]: 0.215 µg/mL (≈ 0.39 µM)
- MIC [1, 8]: 0.215 µg/mL (≈ 0.39 µM)
- MIC S9 ([1]; E. coli ATCC 35218): 0.108
- MIC [1, 9]: 0.04 µg/mL (≈ 0.0725 µM)
- MIC [1, 10]: 0.215 µg/mL (≈ 0.39 µM)
- MIC [1, 11]: 0.027 µg/mL (≈ 0.049 µM)
- MIC [1, 12]: 1.72 µg/mL (≈ 3.13 µM)
- MIC [1, 13]: 0.86 µg/mL (≈ 1.56 µM)
- MIC [1, 14]: 0.86 µg/mL (≈ 1.56 µM)
- MIC [1, 15]: 1.72 µg/mL (≈ 3.13 µM)
- CC50 at 3 days [3]: 15300 nM
- AUC total [4]: 214 ng·h/mL
- clearance [4]: 78.7 mL/min/kg
- IC50 (A. baumannii (ATCC17978); [16]): < 98 nM
- IC50 (S. aureus (ATCC29213); [17]): < 98 nM
- IC50 [2, 18]: < 98 nM

Molecule: CNc1cc(F)c(Cl)c2c1[nH]c1ncc(-c3ccc4ccc(C(=O)O)c(=O)n4c3)c(N3CC[C@]4(C[C@@H]4N)C3)c12 [Example 5.01D, 7-(4-((1S,3S)-1-amino-5-azaspiro[2.4]heptan-5-yl)-5-chloro-6-fluoro-8-(methylamino)-9H-pyrido[2,3-b]indol-3-yl)-4-oxo-4H-quinolizine-3-carboxylic acid]
- CC50 at 3 days [3]: > 100000 nM
- AUC total [4]: 180 ng·h/mL
- clearance [4]: 93 mL/min/kg
- IC50 (A. baumannii (ATCC17978); [16]): < 98 nM
- IC50 (S. aureus (ATCC29213); [17]): < 98 nM
- IC50 [2, 18]: < 98 nM

Molecule: CNc1cc(F)cc2c1[nH]c1nc(Oc3cnc(C)nc3)nc(N3C[C@H]4C[C@@H]3C[C@H]4N)c12 [GP-6, reference compound]
- MIC [1, 6]: 0.339 µg/mL (≈ 0.78 µM)
- MIC [1, 7]: 0.339 µg/mL (≈ 0.78 µM)
- MIC [1, 8]: 0.169 µg/mL (≈ 0.389 µM)
- MIC S9 ([1]; E. coli ATCC 35218): 0.169
- MIC [1, 9]: 0.127 µg/mL (≈ 0.292 µM)
- MIC [1, 10]: 1.36 µg/mL (≈ 3.13 µM)
- MIC [1, 11]: < 0.021 µg/mL
- MIC [1, 12]: 1.36 µg/mL (≈ 3.13 µM)
- MIC [1, 13]: 2.71 µg/mL (≈ 6.25 µM)
- MIC [1, 14]: 0.678 µg/mL (≈ 1.56 µM)
- MIC [1, 15]: 1.36 µg/mL (≈ 3.13 µM)
- CC50 at 3 days [3]: 5600 nM
- AUC total [4]: 126.2 ng·h/mL
- clearance [4]: 132 mL/min/kg
- IC50 (A. baumannii (ATCC17978); [16]): < 98 nM
- IC50 (S. aureus (ATCC29213); [17]): < 98 nM
- IC50 [2, 18]: < 98 nM
- solubility thermodynamic [5]: < 1 µg/mL
